Results taken from ChEMBL document CHEMBL1201862, “PubChem BioAssay data set” (2004).
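Interpolation was linear, between the two tested concentrations surrounding the appropriate level; five concentrations were tested over 48 hours in 96-well plates. GI50 is the concentration that inhibits growth by half.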 The source made the active and inactive calls. No stated cut-off is given here; in the data, active = GI50 up to about 1.1 µM and inactive = higher.

Columns and labels:
Assay in all cases: inhibition of tumour cell growth, NCI panel, 48 h
SF-295 = system: SF-295
A498 = system: A498
HCT-15 = system: HCT-15
SNB-75 = system: SNB-75
UACC-62 = system: UACC-62
HT-29 = system: HT-29
XF498 = system: XF498
MCF7 = system: MCF7
OVCAR-8 = system: OVCAR-8
M19-MEL = system: M19-MEL
LOX IMVI = system: LOX IMVI
UO-31 = system: UO-31
RPMI-8226 = system: RPMI-8226
DLD-1 = system: DLD-1
U-251 = system: U-251
IGROV-1 = system: IGROV-1
SNB-78 = system: SNB-78
HOP-92 = system: HOP-92
COLO 205 = system: COLO 205
K562 = system: K562
HCC 2998 = system: HCC 2998
NCI/ADR-RES = system: NCI/ADR-RES
SN12C = system: SN12C
KM12 = system: KM12
UACC-257 = system: UACC-257
SNB-19 = system: SNB-19
HCT-116 = system: HCT-116
KM-20L2 = system: KM-20L2
SK-MEL-2 = system: SK-MEL-2
EKVX = system: EKVX
SW-620 = system: SW-620
CCRF-CEM = system: CCRF-CEM
OVCAR-5 = system: OVCAR-5
HL-60 = system: HL-60
NCI-H226 = system: NCI-H226
SK-MEL-28 = system: SK-MEL-28
HOP-18 = system: HOP-18
LXFL 529 = system: LXFL 529
ACHN = system: ACHN
OVCAR-3 = system: OVCAR-3
SK-OV-3 = system: SK-OV-3
SK-MEL-5 = system: SK-MEL-5
HOP-62 = system: HOP-62
Malme-3M = system: Malme-3M
A549 = system: A549
TK-10 = system: TK-10
RXF 393 = system: RXF 393
NCI-H522 = system: NCI-H522
OVCAR-4 = system: OVCAR-4
M14 = system: M14
NCI-H23 = system: NCI-H23
CAKI-1 = system: CAKI-1
786-0 = system: 786-0
SF-539 = system: SF-539
MOLT-4 = system: MOLT-4
NCI-H460 = system: NCI-H460
SF-268 = system: SF-268
DMS-273 = system: DMS-273
DMS-114 = system: DMS-114

Measured: GI50

CC1OC(O[C@@H]2C=C3CC[C@@H]4[C@H](CC[C@]5(C)[C@@H](c6ccc(=O)oc6)CC[C@]45O)[C@@]3(C)CC2)C(O)C(OC2OC(CO)C(O)C(O)C2O)C1O (stereo partly drawn)
0.025 µM: HCT-15
active: SF-295 0.025 µM | A498 0.025 µM | SNB-75 0.025 µM | UACC-62 0.025 µM | HT-29 0.0281 µM | XF498 0.025 µM | MCF7 0.025 µM | OVCAR-8 0.025 µM | M19-MEL 0.025 µM | LOX IMVI 0.025 µM | UO-31 0.025 µM | RPMI-8226 0.025 µM | DLD-1 0.025 µM | U-251 0.025 µM | IGROV-1 0.025 µM | SNB-78 0.025 µM | HOP-92 0.025 µM | COLO 205 0.025 µM | K562 0.025 µM | HCC 2998 0.025 µM | NCI/ADR-RES 0.025 µM | SN12C 0.025 µM | KM12 0.025 µM | UACC-257 0.025 µM | SNB-19 0.025 µM | HCT-116 0.025 µM | KM-20L2 0.025 µM | SK-MEL-2 0.025 µM | EKVX 0.025 µM | SW-620 0.025 µM | CCRF-CEM 0.025 µM | OVCAR-5 0.0275 µM | HL-60 0.025 µM | NCI-H226 0.0255 µM | SK-MEL-28 0.025 µM

Cn1c(=O)nc2n(-c3cccc(F)c3)c3ccccc3nc-2c1=O
16.6 µM: HCT-15
inactive: HOP-18 34.1 µM | LXFL 529 37.8 µM | SF-295 24.9 µM | ACHN 8 µM | A498 39.9 µM | OVCAR-3 3.57 µM | SK-OV-3 > 100 µM | SK-MEL-5 14.2 µM | SNB-75 24.8 µM | UACC-62 3.12 µM | HT-29 5.92 µM | HOP-62 53.2 µM | Malme-3M 14.4 µM | A549 19 µM | OVCAR-8 23.2 µM | TK-10 31.6 µM | RXF 393 67.9 µM | M19-MEL 2.11 µM | NCI-H522 16.6 µM | LOX IMVI 18.1 µM | UO-31 52 µM | OVCAR-4 14.7 µM | M14 18.7 µM | NCI-H23 12.1 µM | RPMI-8226 20.5 µM | DLD-1 25.3 µM | CAKI-1 27.2 µM | U-251 19.3 µM | IGROV-1 26.8 µM | SNB-78 23.5 µM | COLO 205 6.11 µM | K562 19.6 µM | HCC 2998 13.4 µM | SN12C 23.6 µM | 786-0 42 µM | KM12 23.1 µM | UACC-257 12.8 µM | SNB-19 21.9 µM | SF-539 25.4 µM | MOLT-4 23.1 µM | HCT-116 23.6 µM | KM-20L2 12.3 µM | SK-MEL-2 20.3 µM | EKVX 13.8 µM | SW-620 11.1 µM | NCI-H460 11.6 µM | CCRF-CEM 19.4 µM | OVCAR-5 33.7 µM | SF-268 43.3 µM | NCI-H226 29.6 µM | DMS-273 13.8 µM

O=c1c2cc(O)ccc2n2nnc3ccc(NCCNCCO)c1c32
inactive: HOP-18 24.3 µM | LXFL 529 1.86 µM | SF-295 11.7 µM | DMS-114 1.71 µM | SK-OV-3 5.4 µM | HT-29 6.62 µM | OVCAR-8 1.86 µM | LOX IMVI 1.71 µM | UO-31 16.3 µM | OVCAR-4 3.84 µM | NCI-H23 5.92 µM | RPMI-8226 14.1 µM | CAKI-1 4.2 µM | U-251 1.82 µM | HOP-92 2.06 µM | COLO 205 4.26 µM | 786-0 3.55 µM | KM12 11.2 µM | SNB-19 4.85 µM | SF-539 3.85 µM | HCT-116 2.65 µM | EKVX 14.5 µM | SF-268 1.59 µM | NCI-H226 2.31 µM
49.1 µM: HCT-15
